Assays:
[1] = tested on: MDA-MB-468 (Breast cancer); test: cells; conditions: Homo sapiens
[2] = tested on: NCI-H23 (NSC lung cancer); test: NCI-60 screen (SRB, 48 h); conditions: Homo sapiens
HCT-116 (Colon cancer) = test: NCI-60 screen (SRB, 48 h); conditions: Homo sapiens
HCT-15 (Colon cancer) = test: NCI-60 screen (SRB, 48 h); conditions: Homo sapiens
[3] = tested on: NIH 3T3 (non-malignant mouse fibroblasts); test: SRB cytotoxicity assay, 72 h; type: cell-based; conditions: Mus musculus, NIH3T3; NIH 3T3, 72 h, cut-off 30 µM; read-out: EC50
Procedure, shortened: (§1)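 Seed, 24 h; compound 0–30 µM serial dilutions, 72 h (DMSO ≤0.5%); fix 10% TCA, 4 °C; stain 0.4% SRB ~20 min; 1% AcOH wash; solubilise 10 mM Tris; A570. EC50 vs untreated.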

HOP-92 (NSC lung cancer) = test: NCI-60 screen (SRB, 48 h); conditions: Homo sapiens
IGROV1 (Ovarian cancer) = test: NCI-60 screen (SRB, 48 h); conditions: Homo sapiens
[4] = tested on: A549/ATCC (NSC lung cancer); test: NCI-60 screen (SRB, 48 h); conditions: Homo sapiens
TK-10 (Renal cancer) = test: NCI-60 screen (SRB, 48 h); conditions: Homo sapiens
Leukemia subpanel = test: cells; conditions: Homo sapiens
U251 (CNS cancer) = test: NCI-60 screen (SRB, 48 h)
[5] = tested on: MDA-MB-31/ATCC (Breast cancer); test: NCI-60 screen (SRB, 48 h); conditions: Homo sapiens
Colon Cancer subpanel = test: NCI-60 screen, subpanel; conditions: Homo sapiens
CAKI-1 (Renal cancer) = test: NCI-60 screen (SRB, 48 h); conditions: Homo sapiens
SNB-19 (CNS cancer) = test: NCI-60 screen (SRB, 48 h); conditions: Homo sapiens
MCF-7 (breast carcinoma) = test: SRB cytotoxicity assay, 72 h; type: cell-based, human; conditions: Homo sapiens, MCF7; MCF-7, 72 h, cut-off 30 µM; read-out: EC50
Procedure, shortened: as §1

[6] = tested on: HT29 (colorectal carcinoma); test: SRB cytotoxicity assay, 72 h; type: cell-based, human; conditions: Homo sapiens, HT-29; HT29, 72 h, cut-off 30 µM; read-out: EC50
Procedure, shortened: as §1

[7] = tested on: FaDu (hypopharyngeal carcinoma); test: SRB cytotoxicity assay, 72 h; type: cell-based, human; conditions: Homo sapiens, cut-off 30 µM, read-out: EC50
Procedure, shortened: as §1

[8] = tested on: A375 (malignant melanoma); test: SRB cytotoxicity assay, 72 h; type: cell-based, human; conditions: Homo sapiens, A-375, 72 h, A375, 72 h, cut-off 30 µM; read-out: EC50
Procedure, shortened: as §1

[9] = tested on: A2780 (ovarian carcinoma); test: SRB cytotoxicity assay, 72 h; type: cell-based, human; conditions: Homo sapiens; A2780, 72 h, cut-off 30 µM; read-out: EC50
Procedure, shortened: as §1

SF-295 (CNS cancer) = test: NCI-60 screen (SRB, 48 h); conditions: Homo sapiens
CCRF-CEM (Leukemia) = test: NCI-60 screen (SRB, 48 h); conditions: Homo sapiens
OVCAR-5 (Ovarian cancer) = test: NCI-60 screen (SRB, 48 h); conditions: Homo sapiens
MOLT-4 (Leukemia) = test: NCI-60 screen (SRB, 48 h); conditions: Homo sapiens
SN12C (Renal cancer) = test: NCI-60 screen (SRB, 48 h); conditions: Homo sapiens

Work on Cc1ccc(S(=O)(=O)OC[C@@]2(C)CC[C@]3(C)CC[C@]4(C)C(=C3C2)C=C[C@@H]2[C@@]3(C)CCCNC(C)(C)[C@@H]3CC[C@]24C)cc1 [Compound 16] yielded a GI50 ([1]; MDA-MB-468) of 1.59 µM, an IC (TGI) ([1]; MDA-MB-468, 48 h, read-out: TGI) of 3.22 µM and a CC50 ([1]; MDA-MB-468, read-out: LC50) of 6.51 µM. For the same compound, the GI50 ([2]; NCI-H23) was 1.82 µM, the IC (TGI) ([2]; NCI-H23, 48 h, read-out: TGI) was 3.42 µM and the CC50 ([2]; NCI-H23, read-out: LC50) was 6.41 µM. For the same compound, the GI50 (HCT-116 (Colon cancer); HCT-116) was 1.54 µM, the activity at 10 µM (HCT-116 (Colon cancer); HCT-116, 48 h, read-out: Growth % of the Most Sensitive Cell Lines) was -91.5% and the GI50 (HCT-15 (Colon cancer); HCT-15) was 1.61 µM. For the same compound, the IC (TGI) (HCT-15 (Colon cancer); HCT-15, 48 h, read-out: TGI) was 3.17 µM, the EC50 [3] was 2.45 ± 0.1 µM and the GI50 (HOP-92 (NSC lung cancer); HOP-92) was 1.45 µM. It also gave an IC (TGI) (HOP-92 (NSC lung cancer); HOP-92, 48 h, read-out: TGI) of 2.97 µM, a CC50 (HOP-92 (NSC lung cancer); HOP-92, read-out: LC50) of 6.11 µM and a GI50 (IGROV1 (Ovarian cancer); IGROV-1) of 1.79 µM. It also gave an IC (TGI) (IGROV1 (Ovarian cancer); IGROV-1, 48 h, read-out: TGI) of 3.43 µM, a GI50 ([4]; A549) of 1.86 µM and an IC (TGI) ([4]; A549, 48 h, read-out: TGI) of 3.62 µM. It also gave a GI50 (TK-10 (Renal cancer); TK-10) of 1.88 µM, an IC (TGI) (TK-10 (Renal cancer); TK-10, 48 h, read-out: TGI) of 3.59 µM and a CC50 (TK-10 (Renal cancer); TK-10, read-out: LC50) of 6.85 µM. The IC (TGI) (Leukemia subpanel; 48 h, read-out: TGI MG_MID) was 4.72 µM, the GI50 (Leukemia subpanel; read-out: GI50 MG_MID) was 1.61 µM and the CC50 (Leukemia subpanel; read-out: LC50 MG_MID) was > 100 µM. The GI50 (U251 (CNS cancer); Homo sapiens, U-251) was 1.66 µM, the IC (TGI) (U251 (CNS cancer); Homo sapiens, U-251, 48 h, read-out: TGI) was 3.17 µM and the CC50 (U251 (CNS cancer); Homo sapiens, U-251, read-out: LC50) was 6.07 µM. For the same compound, the “Growth % of the Most Sensitive Cell Lines” value (U251 (CNS cancer); U251, 1 dose 10 µM) was −95.86%, the GI50 [5] was 1.98 µM and the IC (TGI) ([5]; 48 h, read-out: TGI) was 3.91 µM. For the same compound, the IC (TGI) (Colon Cancer subpanel; 48 h, read-out: TGI MG_MID) was 3.3 µM, the GI50 (Colon Cancer subpanel; read-out: GI50 MG_MID) was 1.64 µM and the CC50 (Colon Cancer subpanel; read-out: LC50 MG_MID) was 6.94 µM. It also gave a GI50 (CAKI-1 (Renal cancer); CAKI-1) of 1.61 µM, an IC (TGI) (CAKI-1 (Renal cancer); CAKI-1, 48 h, read-out: TGI) of 3.06 µM and a CC50 (CAKI-1 (Renal cancer); CAKI-1, read-out: LC50) of 5.81 µM. For the same compound, the GI50 (SNB-19 (CNS cancer); SNB-19) was 1.91 µM, the IC (TGI) (SNB-19 (CNS cancer); SNB-19, 48 h, read-out: TGI) was 3.62 µM and the EC50 (MCF-7 (breast carcinoma)) was 1.54 ± 0.1 µM. For the same compound, the EC50 [6] was 1.54 ± 0.1 µM, the EC50 [7] was 1.52 ± 0.1 µM and the EC50 [8] was 1.91 ± 0.1 µM. For the same compound, the EC50 [9] was 2.38 ± 0.1 µM, the GI50 (SF-295 (CNS cancer); SF-295) was 1.78 µM and the IC (TGI) (SF-295 (CNS cancer); SF-295, 48 h, read-out: TGI) was 3.29 µM. It also gave a CC50 (SF-295 (CNS cancer); SF-295, read-out: LC50) of 6.08 µM, a GI50 (CCRF-CEM (Leukemia)) of 2.14 µM and an IC (TGI) (CCRF-CEM (Leukemia); 48 h, read-out: TGI) of 6.06 µM. The CC50 (CCRF-CEM (Leukemia); read-out: LC50) was > 100 µM, the GI50 (OVCAR-5 (Ovarian cancer); OVCAR-5) was 1.77 µM and the IC (TGI) (OVCAR-5 (Ovarian cancer); OVCAR-5, 48 h, read-out: TGI) was 3.21 µM. The CC50 (OVCAR-5 (Ovarian cancer); OVCAR-5, read-out: LC50) was 5.81 µM, the GI50 (MOLT-4 (Leukemia); MOLT-4) was 1.84 µM and the IC (TGI) (MOLT-4 (Leukemia); MOLT-4, 48 h, read-out: TGI) was 4.16 µM. The GI50 (SN12C (Renal cancer)) was 1.79 µM and the IC (TGI) (SN12C (Renal cancer); 48 h, read-out: TGI) was 3.41 µM.
